Measured values from ChEMBL document CHEMBL5543072, “Discovery of a novel lead characterized by a stilbene-extended scaffold against sepsis as soluble epoxide hydrolase inhibitors” (Eur J Med Chem, 2024).
Calls of active or inactive are those of the source. The rule behind the calls is not given here.

Assays:
[1] = Cytotoxicity in HEK293T cells assessed as cell viability at 50 uM incubated for 48 hrs by CCK8 assay relative to control; format: toxicity, cell-based, HEK-293T; settings: human, read-out: Activity
[2] = Cmax in Sprague-Dawley rat at 5 mg/kg, iv measured after 24 hrs; format: ADME, organism-based; settings: in vivo
[3] = Cmax in C57BL/6J mouse blood at 5 mg/kg, ip measured after 24 hrs by LC-MS/MS analysis; format: ADME, organism-based
Mus musculus [4] = experiment: Protection against LPS-induced sepsis in C57BL/6J mouse model assessed as […] at 5 mg/kg, iv measured after 24 hrs relative to control; format: functional
Mus musculus [5] = experiment: Protection against LPS-induced sepsis in C57BL/6J mouse model assessed as […] at 5 mg/kg, iv measured after 32 hrs relative to control; format: functional
[6] = molecular target: T1, Bifunctional epoxide hydrolase 2 (Homo sapiens, UniProt P34913)
T1 sequence (P34913 whole entry): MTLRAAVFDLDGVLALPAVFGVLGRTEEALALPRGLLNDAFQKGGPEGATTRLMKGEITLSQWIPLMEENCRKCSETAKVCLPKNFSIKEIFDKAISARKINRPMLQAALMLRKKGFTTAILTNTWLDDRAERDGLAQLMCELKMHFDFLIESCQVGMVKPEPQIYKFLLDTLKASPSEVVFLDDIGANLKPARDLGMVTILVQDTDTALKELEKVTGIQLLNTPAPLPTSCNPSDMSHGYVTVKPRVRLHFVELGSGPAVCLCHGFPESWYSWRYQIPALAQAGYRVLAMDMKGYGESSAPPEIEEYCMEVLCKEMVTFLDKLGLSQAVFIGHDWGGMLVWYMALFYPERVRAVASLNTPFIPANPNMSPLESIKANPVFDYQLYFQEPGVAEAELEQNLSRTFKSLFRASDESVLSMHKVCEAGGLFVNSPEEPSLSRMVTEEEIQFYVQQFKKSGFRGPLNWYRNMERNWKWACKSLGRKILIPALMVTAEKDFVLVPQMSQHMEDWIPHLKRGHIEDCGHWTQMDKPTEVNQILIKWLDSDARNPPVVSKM

Mus musculus [7] = experiment: Protection against LPS-induced sepsis in C57BL/6J mouse model assessed as survival rate at 30 mg/kg, iv measured after 24 hrs relative to control; format: functional
[8] = AUC (0 to 24 hrs) in Sprague-Dawley rat at 20 mg/kg, po measured after 24 hrs; format: ADME, organism-based; settings: in vivo
[9] = AUC (0 to 24 hrs) in Sprague-Dawley rat at 5 mg/kg, iv measured after 24 hrs; format: ADME, organism-based; settings: in vivo
Mus musculus [10] = experiment: Protection against LPS-induced sepsis in C57BL/6J mouse model assessed as survival rate at 30 mg/kg, iv measured upto 56 hrs relative to control; format: functional
[11] = Cytotoxicity against human HepG2 cells assessed as cell viability at 50 uM incubated for 48 hrs by CCK8 assay relative to control; format: toxicity, cell-based; settings: read-out: Activity
Mus musculus [12] = experiment: Anti-inflammatory activity in LPS-induced C57BL/6J mouse model of sepsis assessed as IL-6 in liver at 5 mg/kg, ip preadministered with compound for 24 hrs followed by LPS administration and measured after 3 hrs by ELISA (reference value: 308 pg/ml); format: functional; settings: time 27 hrs
[13] = Cytotoxicity against human HepG2 cells assessed as cell viability at 5 uM incubated for 48 hrs by CCK8 assay relative to control; format: toxicity, cell-based; settings: read-out: Activity
Mus musculus [14] = experiment: Protection against LPS-induced sepsis in C57BL/6J mouse model assessed as survival rate at 30 mg/kg, iv measured after 48 hrs relative to control; format: functional
[15] = Half-life in Sprague-Dawley rat at 5 mg/kg, iv measured after 24 hrs; format: ADME, organism-based; settings: in vivo
Mus musculus [16] = experiment: Protection against LPS-induced sepsis in C57BL/6J mouse model assessed as survival rate at 0.5 mg/kg, iv measured after 72 hrs relative to control; format: functional
[17] = molecular target: T2, Bifunctional epoxide hydrolase 2 (Mus musculus, UniProt P34914)
T2 sequence (P34914 whole entry): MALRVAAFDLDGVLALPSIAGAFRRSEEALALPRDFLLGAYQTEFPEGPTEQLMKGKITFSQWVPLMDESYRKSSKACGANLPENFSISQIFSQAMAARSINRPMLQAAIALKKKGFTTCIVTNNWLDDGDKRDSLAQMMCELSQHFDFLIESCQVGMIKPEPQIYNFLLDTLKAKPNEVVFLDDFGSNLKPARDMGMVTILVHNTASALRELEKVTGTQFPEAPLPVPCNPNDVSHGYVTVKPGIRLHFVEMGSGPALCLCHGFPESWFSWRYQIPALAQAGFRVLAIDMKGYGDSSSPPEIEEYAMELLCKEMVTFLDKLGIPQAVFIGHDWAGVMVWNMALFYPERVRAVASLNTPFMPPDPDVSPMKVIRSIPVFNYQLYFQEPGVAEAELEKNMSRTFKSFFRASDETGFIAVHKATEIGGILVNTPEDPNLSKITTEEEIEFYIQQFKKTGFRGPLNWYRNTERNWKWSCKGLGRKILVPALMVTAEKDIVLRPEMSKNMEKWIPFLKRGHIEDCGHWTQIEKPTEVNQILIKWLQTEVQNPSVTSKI

Mus musculus [18] = experiment: Protection against LPS-induced sepsis in C57BL/6J mouse model assessed as survival rate at 5 mg/kg, iv measured after 24 hrs relative to control; format: functional
Mus musculus [19] = experiment: Protection against LPS-induced sepsis in C57BL/6J mouse model assessed as survival rate at 0.05 mg/kg, iv measured after 72 hrs relative to control; format: functional
[20] = Cmax in C57BL/6J mouse liver at 5 mg/kg, ip measured after 24 hrs by LC-MS/MS analysis; format: ADME, organism-based
Mus musculus [21] = experiment: Protection against LPS-induced sepsis in C57BL/6J mouse model assessed as survival rate at 30 mg/kg, iv measured after 72 hrs relative to control; format: functional
Mus musculus [22] = experiment: Protection against LPS-induced sepsis in C57BL/6J mouse model assessed as survival rate at 0.5 mg/kg, iv measured after 24 hrs relative to control; format: functional
in vivo = settings: C57BL/6J, mouse, other tissue, ip, 5 mg/kg
Description: Ratio of Cmax in C57BL/6J mouse liver to blood at 5 mg/kg, ip measured after 24 hrs by LC-MS/MS analysis

[23] = Apparent volume of distribution in Sprague-Dawley rat at 20 mg/kg, po measured after 24 hrs; format: ADME, organism-based; settings: in vivo
Mus musculus [24] = experiment: Protection against LPS-induced sepsis in C57BL/6J mouse model assessed as survival rate at 5 mg/kg, iv measured after 72 hrs relative to control; format: functional
Mus musculus [25] = experiment: Protection against LPS-induced sepsis in C57BL/6J mouse model at 0.05 mg/kg, iv measured after 72 hrs; format: functional, organism-based
Mus musculus [26] = experiment: Anti-inflammatory activity in LPS-induced C57BL/6J mouse model of sepsis assessed as TNF-alpha in liver at 5 mg/kg, ip preadministered with compound for 24 hrs followed by LPS administration and measured after 3 hrs by ELISA (reference value: 298 pg/ml); format: functional; settings: time 27 hrs
[27] = Cmax in Sprague-Dawley rat at 20 mg/kg, po measured after 24 hrs; format: ADME, organism-based; settings: in vivo

Work on `O=C(Cc1ccccn1)Nc1cccc(/C=C/c2ccc(NC(=O)NCC3CCOCC3)cc2)c1` yielded a viability at 48 h, 50 µM [1] of 46.6%, a Cmax [2] of 660 ng/mL and a Cmax [3] of 330 ng/mL. The Activity (Mus musculus [4]) was 40%, the Activity (Mus musculus [5]) was 40% and the IC50 [6] was 1.52 nM. For the same compound, the survival at 30 mg/kg (Mus musculus [7]) was 60%, the AUC [8] was 48 ng·h/mL and the AUC(0-t) at 24 h [9] was 266 ng·h/mL. The survival at 30 mg/kg (Mus musculus [10]) was > 50%, the viability at 48 h, 50 µM [11] was 46.5% and the Activity (Mus musculus [12]) was 270 pg/mL. It also gave a viability at 48 h, 5 µM [13] of 73.9%, a survival at 30 mg/kg (Mus musculus [14]) of 50% and a half-life [15] of 24 min. The survival at 0.5 mg/kg (Mus musculus [16]) was 40%, the IC50 [17] was 4.02 nM and the survival at 5 mg/kg (Mus musculus [18]) was 60%. It also gave a survival at 0.05 mg/kg (Mus musculus [19]) of 10%, a Cmax [20] of 2510 ng/g and a survival at 30 mg/kg (Mus musculus [21]) of 10%. For the same compound, the survival at 0.5 mg/kg (Mus musculus [22]) was 50%, the Kp at 24 h (in vivo) was 7.6 and the Vz [23] was 4132.531 L/kg. The survival at 5 mg/kg (Mus musculus [24]) was 40%, the Activity (Mus musculus [25]) was “inactive” and the Activity (Mus musculus [26]) was 193 pg/mL. The Cmax [27] was 28.2 ng/mL.
